Test results published in PubChem BioAssay (NCI).
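The compound was tested at five concentrations on cells cultured in 96-well plates, with a 48-hour exposure period. TGI: concentration producing complete growth inhibition.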

What was measured:
Assay in all cases: growth of human tumour cells (NCI), 48 h
[1] = tested on: A549 NSCLC
[2] = tested on: HCT-15 colon
[3] = tested on: HS 578T breast
[4] = tested on: K-562 leukemia
[5] = tested on: NCI/ADR-RES ovarian
[6] = tested on: OVCAR-3 ovarian
[7] = tested on: OVCAR-4 ovarian
[8] = tested on: OVCAR-5 ovarian
[9] = tested on: RPMI-8226 leukemia
[10] = tested on: SK-MEL-5 melanoma
[11] = tested on: U251 CNS
[12] = tested on: A498 renal
[13] = tested on: SK-MEL-28 melanoma

| Structure (SMILES) | TGI [1] [µM] | TGI [2] [µM] | TGI [3] [µM] | TGI [4] [µM] | TGI [5] [µM] | TGI [6] [µM] | TGI [7] [µM] | TGI [8] [µM] | TGI [9] [µM] | TGI [10] [µM] | TGI [11] [µM] | TGI [12] [µM] | TGI [13] [µM] |
| --- | --- | --- | --- | --- | --- | --- | --- | --- | --- | --- | --- | --- | --- |
| O=C1C(Cl)C(c2cccc(Cl)c2)N1c1ccc(-n2c(=S)[nH]c3ccccc3c2=O)cc1 (centres undefined) | 81.5 | 14.4 | 62.1 | 45.3 | 70.8 | > 100 | 39.6 | 57.5 | 55.6 | 31.4 | 27.9 | – | – |
| Cc1ccc(C)c(COCCOCn2ccc(N)nc2=O)c1 | > 100 | > 100 | > 100 | > 100 | > 100 | > 100 | – | > 100 | – | – | > 100 | > 100 | > 100 |
| NNc1nncc2n[nH]nc12 | > 100 | > 100 | > 100 | > 100 | > 100 | > 100 | – | > 100 | > 100 | – | > 100 | > 100 | > 100 |
| c1ccc(CSP234N5CCN2CCN3CCN4CC5)c(CSP234N5CCN2CCN3CCN4CC5)c1 | > 100 | > 100 | > 100 | – | > 100 | > 100 | > 100 | > 100 | > 100 | > 100 | > 100 | – | > 100 |
| COc1cc2c(cc1OC)CCc1cc(OC)c(OC)cc1CC2 | > 100 | > 100 | > 100 | > 100 | > 100 | > 100 | > 100 | > 100 | – | > 100 | > 100 | > 100 | > 100 |
| O=C1CCCC2(c3ccccc3)Nc3ccccc3N12 (centres undefined) | > 100 | > 100 | > 100 | > 100 | > 100 | > 100 | > 100 | > 100 | > 100 | > 100 | > 100 | – | > 100 |
| COc1ccc(N2C(=O)C3ON(C(C(N)=O)c4ccccc4)C(c4cc5ccccc5c5ccccc45)C3C2=O)cc1 (centres undefined) | > 50 | > 50 | > 50 | > 50 | > 50 | > 50 | > 50 | > 50 | – | > 50 | > 50 | > 50 | > 50 |
| COC(=O)C1=C(C(=O)OC)c2cc(OC)ccc2C(C(=S)N(C)C)S1 (centres undefined) | > 100 | > 100 | > 100 | > 100 | > 100 | > 100 | > 100 | > 100 | > 100 | – | > 100 | > 100 | > 100 |
| C=C(CC[C@@H](C)[C@H]1CC[C@@]2(C)C3=C(CC[C@]12C)[C@@]1(C)CC[C@H](O)[C@@H](C)C1CC3)C(C)C (some centres undefined) | 2.32 | 2.5 | 3.13 | 1.18 | 3.65 | 3.59 | 3.3 | 2.67 | – | 2.55 | 3.11 | 2.58 | 2.51 |
| CC12CCC([C@H](C(O)C3CCCCC3)C1=O)C2(C)C (some centres undefined) | – | > 100 | > 100 | > 100 | > 100 | > 100 | > 100 | > 100 | > 100 | > 100 | > 100 | > 100 | – |
